Laboratory results reported in article PMC11310079, “Commensal production of a broad-spectrum and short-lived antimicrobial peptide polyene eliminates nasal Staphylococcus aureus” (Nature Microbiology, 2023).

Key:
S. aureus USA300 LAC = assay: Stability analysis of epifadin (bioactivity by agar diffusion after incubation); type: physicochemical, Staphylococcus aureus; conditions: 37 °C, pH 7, light, r4-r10 = 0-6 h
Procedure: Fig. 2 High instability of epifadin under in vivo-like conditions. S. epidermidis IVK83 culture supernatants containing epifadin were precipitated with HCl, freeze-dried and extracted with DMSO. This extract was diluted in TSB, incubated for the indicated time periods with constant shaking under the respective conditions and subsequently tested for activity towards S. aureus USA300 LAC. a, Stability of epifadin compared with other antibacterial agents under standard laboratory conditions (37 °C, pH 7, laboratory light exposure). b, In vivo-like conditions with laboratory light exposure at pH 7 (nasal condition) or pH 5.5 (skin condition) and reduced temperatures; incubation of epifadin under exclusion from light enabled further purification and activity determination. Conditions at pH 7, 37 °C and 0 h were used as reference for 100% stability. Data shown represent the mean ± s.d. of three independent experiments. Source data
The effect of different incubation conditions on the bioactivity of epifadin was analysed by agar diffusion assays on lawns of the sensitive indicator strain S. aureus USA300 LAC. To this end, liquid TSA was inoculated with an overnight culture of USA300 at an OD600 of 0.00125. After solidification of the agar, a cork borer was used to punch wells into the agar with 5 mm diameter. TSB media with 50 mM sodium citrate (pH 5 and 6) or 50 mM tris(hydroxymethyl)aminomethane (pH 8 and 9) were prepared. Epifadin-containing precipitate was dissolved in DMSO (12 mg ml^−1), and insoluble particles were removed by centrifugation. The supernatant was added to the prepared TSB media at a final concentration of 750 µg precipitate per millilitre (37.5 µg in 50 µl). Media were incubated for 6 h at 21 °C, 30 °C or 37 °C with or without laboratory light exposure and constant shaking at 500 rpm in a thermomixer (Eppendorf). As controls, 70 µg ml^−1 (3.5 µg in 50 µl) lugdunin, 24 µg ml^−1 (1.2 µg in 50 µl) gallidermin and 100 µg ml^−1 (5 µg in 50 µl) nisin were used. At different timepoints, 50 µl of each sample was pipetted into the wells of the agar plates. After incubation at 37 °C overnight, zones of inhibition were analysed with ImageJ software (version 1.8.0_112).

S. aureus USA300 JE2 = assay: Determination of the IC (miniaturized agar diffusion assay); type: cell-based, Staphylococcus aureus; conditions: agar diffusion on inoculated TSA, 24 h 37 °C dark; IC from inhibited agar volume
Procedure: (§1) Instead, a miniaturized assay was developed. Molten TSA, kept below 42 °C, was inoculated with different test strains at an OD600 of 0.00125. Then, 17.5 ml was poured into Petri dishes, resulting in agar layers of ~3.16 mm thickness. After solidification, a cork borer was used to punch wells of 4-mm diameter into the agar. Thirty-five microlitres of purified epifadin in DMSO–PA (2.4 µg, 1.2 µg, 0.6 µg, 0.3 µg, 0.15 µg and 0.075 µg) was pipetted into the wells, and agar plates were incubated for 24 h at 37 °C in the dark. Diameters of the zones of inhibition were measured and the volume containing the inhibitory epifadin concentration was calculated, using the following formula for cylinder volume: Vc=πxr^2xhVc=cylindervolumeVi=πrz2xha−(πrw2xha)Vi=inhibitedvolumerz2=radius(diameter/2)zoneofinhibitionrw2=radius(diameter/2)ofwellha=heightofagar
(§2) The volume of agar showing inhibition of the test strain was then correlated with the included amount of epifadin, and the epifadin concentration necessary to inhibit test strain growth in a 1 ml volume was calculated to yield IC values. If, for example, 2.4 µg of epifadin lead to an inhibited volume of 480 µl, to inhibit a volume of 1 ml, 5 µg epifadin is needed, which corresponds to an IC of 5 μg ml^−1. These calculations were conducted for the lowest amount of epifadin that led to a zone of inhibition to minimize the necessary epifadin amounts and the calculation error due to the gradient within the inhibition zone. As a control, the same assay was used to determine the IC for vancomycin, daptomycin and lugdunin under these conditions.

S. aureus USA300LAC = assay: as above; type: cell-based, Staphylococcus aureus; conditions: agar diffusion on inoculated TSA, 35 µl in 4-mm wells, 24 h 37 °C dark; IC from inhibited agar volume at lowest active amount
Procedure: as §1, §2

Gallidermin
stability (remaining antimicrobial activity, 0 h = 100%) (S. aureus USA300 LAC; gallidermin 24 µg/ml in TSB, experiment 1 of 3, after 1 h incubation): 98.31% | stability (remaining antimicrobial activity, 0 h = 100%) (S. aureus USA300 LAC; gallidermin 24 µg/ml in TSB, experiment 1 of 3, after 2 h incubation): 98.34% | stability (remaining antimicrobial activity, 0 h = 100%) (S. aureus USA300 LAC; gallidermin 24 µg/ml in TSB, experiment 1 of 3, after 3 h incubation): 97.66% | stability (remaining antimicrobial activity, 0 h = 100%) (S. aureus USA300 LAC; gallidermin 24 µg/ml in TSB, experiment 1 of 3, after 4 h incubation): 104.98% | stability (remaining antimicrobial activity, 0 h = 100%) (S. aureus USA300 LAC; gallidermin 24 µg/ml in TSB, experiment 1 of 3, after 5 h incubation): 100.66% | stability (remaining antimicrobial activity, 0 h = 100%) (S. aureus USA300 LAC; gallidermin 24 µg/ml in TSB, experiment 1 of 3, after 6 h incubation): 98.44% | stability (remaining antimicrobial activity, 0 h = 100%) (S. aureus USA300 LAC; gallidermin 24 µg/ml in TSB, experiment 2 of 3, after 1 h incubation): 97.85% | stability (remaining antimicrobial activity, 0 h = 100%) (S. aureus USA300 LAC; gallidermin 24 µg/ml in TSB, experiment 2 of 3, after 2 h incubation): 106.35% | stability (remaining antimicrobial activity, 0 h = 100%) (S. aureus USA300 LAC; gallidermin 24 µg/ml in TSB, experiment 2 of 3, after 3 h incubation): 110.68% | stability (remaining antimicrobial activity, 0 h = 100%) (S. aureus USA300 LAC; gallidermin 24 µg/ml in TSB, experiment 2 of 3, after 4 h incubation): 102.27% | stability (remaining antimicrobial activity, 0 h = 100%) (S. aureus USA300 LAC; gallidermin 24 µg/ml in TSB, experiment 2 of 3, after 5 h incubation): 103.29% | stability (remaining antimicrobial activity, 0 h = 100%) (S. aureus USA300 LAC; gallidermin 24 µg/ml in TSB, experiment 2 of 3, after 6 h incubation): 108.21% | stability (remaining antimicrobial activity, 0 h = 100%) (S. aureus USA300 LAC; gallidermin 24 µg/ml in TSB, experiment 3 of 3, after 1 h incubation): 100.01% | stability (remaining antimicrobial activity, 0 h = 100%) (S. aureus USA300 LAC; gallidermin 24 µg/ml in TSB, experiment 3 of 3, after 2 h incubation): 96.91% | stability (remaining antimicrobial activity, 0 h = 100%) (S. aureus USA300 LAC; gallidermin 24 µg/ml in TSB, experiment 3 of 3, after 3 h incubation): 95.85% | stability (remaining antimicrobial activity, 0 h = 100%) (S. aureus USA300 LAC; gallidermin 24 µg/ml in TSB, experiment 3 of 3, after 4 h incubation): 100.24% | stability (remaining antimicrobial activity, 0 h = 100%) (S. aureus USA300 LAC; gallidermin 24 µg/ml in TSB, experiment 3 of 3, after 5 h incubation): 103.69% | stability (remaining antimicrobial activity, 0 h = 100%) (S. aureus USA300 LAC; gallidermin 24 µg/ml in TSB, experiment 3 of 3, after 6 h incubation): 91.59%

CN[C@H](CC(C)C)C(=O)N[C@H]1C(=O)N[C@@H](CC(N)=O)C(=O)N[C@H]2C(=O)N[C@H]3C(=O)N[C@H](C(=O)N[C@H](C(=O)O)c4cc(O)cc(O)c4-c4cc3ccc4O)[C@H](O)c3ccc(c(Cl)c3)Oc3cc2cc(c3O[C@@H]2O[C@H](CO)[C@@H](O)[C@H](O)[C@H]2O[C@H]2C[C@](C)(N)[C@H](O)[C@H](C)O2)Oc2ccc(cc2Cl)[C@H]1O [Vancomycin]
IC* (S. aureus USA300 JE2): 3.7 µg/mL | IC* (S. aureus USA300LAC): 6.0 µg/mL

Nisin
stability (remaining antimicrobial activity, 0 h = 100%) (S. aureus USA300 LAC; nisin 100 µg/ml in TSB, experiment 1 of 3, after 1 h incubation): 97.92% | stability (remaining antimicrobial activity, 0 h = 100%) (S. aureus USA300 LAC; nisin 100 µg/ml in TSB, experiment 1 of 3, after 2 h incubation): 95.64% | stability (remaining antimicrobial activity, 0 h = 100%) (S. aureus USA300 LAC; nisin 100 µg/ml in TSB, experiment 1 of 3, after 3 h incubation): 93.46% | stability (remaining antimicrobial activity, 0 h = 100%) (S. aureus USA300 LAC; nisin 100 µg/ml in TSB, experiment 1 of 3, after 4 h incubation): 95.48% | stability (remaining antimicrobial activity, 0 h = 100%) (S. aureus USA300 LAC; nisin 100 µg/ml in TSB, experiment 1 of 3, after 5 h incubation): 97.51% | stability (remaining antimicrobial activity, 0 h = 100%) (S. aureus USA300 LAC; nisin 100 µg/ml in TSB, experiment 1 of 3, after 6 h incubation): 85.14% | stability (remaining antimicrobial activity, 0 h = 100%) (S. aureus USA300 LAC; nisin 100 µg/ml in TSB, experiment 2 of 3, after 1 h incubation): 104.00% | stability (remaining antimicrobial activity, 0 h = 100%) (S. aureus USA300 LAC; nisin 100 µg/ml in TSB, experiment 2 of 3, after 2 h incubation): 100.36% | stability (remaining antimicrobial activity, 0 h = 100%) (S. aureus USA300 LAC; nisin 100 µg/ml in TSB, experiment 2 of 3, after 3 h incubation): 102.17% | stability (remaining antimicrobial activity, 0 h = 100%) (S. aureus USA300 LAC; nisin 100 µg/ml in TSB, experiment 2 of 3, after 4 h incubation): 101.46% | stability (remaining antimicrobial activity, 0 h = 100%) (S. aureus USA300 LAC; nisin 100 µg/ml in TSB, experiment 2 of 3, after 5 h incubation): 105.85% | stability (remaining antimicrobial activity, 0 h = 100%) (S. aureus USA300 LAC; nisin 100 µg/ml in TSB, experiment 2 of 3, after 6 h incubation): 97.13% | stability (remaining antimicrobial activity, 0 h = 100%) (S. aureus USA300 LAC; nisin 100 µg/ml in TSB, experiment 3 of 3, after 1 h incubation): 107.69% | stability (remaining antimicrobial activity, 0 h = 100%) (S. aureus USA300 LAC; nisin 100 µg/ml in TSB, experiment 3 of 3, after 2 h incubation): 105.39% | stability (remaining antimicrobial activity, 0 h = 100%) (S. aureus USA300 LAC; nisin 100 µg/ml in TSB, experiment 3 of 3, after 4 h incubation): 113.09% | stability (remaining antimicrobial activity, 0 h = 100%) (S. aureus USA300 LAC; nisin 100 µg/ml in TSB, experiment 3 of 3, after 5 h incubation): 97.70% | stability (remaining antimicrobial activity, 0 h = 100%) (S. aureus USA300 LAC; nisin 100 µg/ml in TSB, experiment 3 of 3, after 6 h incubation): 77.36%
